In general, Ki refers to a measure of affinity in units of concentration, obtained from inhibition or displacement. Low values mean higher affinity, high ones lower affinity.

Our source for the Ki values is PMC6297244, “Synthesis and Kinetic evaluation of an azido analogue of methylerythritol phosphate: a Novel Inhibitor of E. coli YgbP/IspD” (Scientific Reports, 2018).

For this assay, the target named is T1, YgbP/IspD (Escherichia coli, UniProt Q46893).
T1 sequence (Q46893 2-236): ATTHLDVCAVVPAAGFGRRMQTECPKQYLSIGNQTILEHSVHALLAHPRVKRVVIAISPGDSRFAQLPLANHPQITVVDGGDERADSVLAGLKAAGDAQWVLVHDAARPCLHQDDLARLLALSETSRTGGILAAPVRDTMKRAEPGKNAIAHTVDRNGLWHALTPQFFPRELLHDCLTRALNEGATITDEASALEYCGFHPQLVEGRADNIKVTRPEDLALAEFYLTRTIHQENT
Put plainly: steady-state inhibition kinetics, malachite green phosphate assay coupled to inorganic pyrophosphatase. Type of assay: biochemical.

For `[N-]=[N+]=NC[C@](O)(CO)[C@H](O)COP(=O)(O)O` [compound 11, MEPN3], affinity was put at a Ki of 21 ± 3 µM.
